Here are results for 71 compounds from US20090137577A1, “HETEROCYCLIC COMPOUNDS” (Pfizer Inc., priority 2007, published 2009).

In this test the target is T1, mGluR2 receptor (metabotropic glutamate receptor 2) (Homo sapiens, UniProt Q14416).
T1 construct: expressed in transfected cells
T1 sequence (Q14416 19-872, species assumed): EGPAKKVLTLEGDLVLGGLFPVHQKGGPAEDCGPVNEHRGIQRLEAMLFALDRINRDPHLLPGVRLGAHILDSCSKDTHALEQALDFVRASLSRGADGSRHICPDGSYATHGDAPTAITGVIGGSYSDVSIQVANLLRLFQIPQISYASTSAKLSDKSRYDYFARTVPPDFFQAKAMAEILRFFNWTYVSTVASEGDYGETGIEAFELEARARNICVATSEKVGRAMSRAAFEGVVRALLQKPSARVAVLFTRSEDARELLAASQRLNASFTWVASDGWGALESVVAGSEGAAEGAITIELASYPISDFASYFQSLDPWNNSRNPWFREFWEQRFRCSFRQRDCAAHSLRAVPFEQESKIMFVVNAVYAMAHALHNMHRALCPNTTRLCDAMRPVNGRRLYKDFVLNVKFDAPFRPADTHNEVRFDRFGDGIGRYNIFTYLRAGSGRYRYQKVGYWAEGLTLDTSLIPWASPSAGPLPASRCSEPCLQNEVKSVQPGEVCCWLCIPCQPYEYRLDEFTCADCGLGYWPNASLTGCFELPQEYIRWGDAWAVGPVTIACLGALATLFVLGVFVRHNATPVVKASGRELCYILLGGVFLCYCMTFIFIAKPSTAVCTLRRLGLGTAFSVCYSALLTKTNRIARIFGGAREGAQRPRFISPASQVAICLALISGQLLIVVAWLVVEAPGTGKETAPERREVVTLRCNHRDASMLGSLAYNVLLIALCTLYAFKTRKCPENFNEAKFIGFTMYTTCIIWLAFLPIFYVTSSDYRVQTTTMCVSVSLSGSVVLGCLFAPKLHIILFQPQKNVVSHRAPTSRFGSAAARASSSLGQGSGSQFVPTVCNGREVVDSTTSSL
The experiment in a line: mGluR2 potentiator screen (FLIPR, EC10-EC20 glutamate challenge).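 Note: HEK cells stably expressing human mGluR2 with GL15 G protein, Fluo-4 calcium fluorescence read on FLIPR, compounds added before an EC10-EC20 glutamate challenge to detect potentiation.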 The following applies: geometric mean; read-out: mGluR 2 EC50 (geometric mean). In kind it is cell-based.
For orientation: EC50 means the midpoint of the concentration-response curve. Turning to `C[C@@H]1CN(Cc2ccc(-c3cnc4ccccc4c3)cc2)C(=O)O1` [Example 181], the concentration giving a half-maximal response (EC50) was 286 nM.
With `C[C@@H]1CN(Cc2ccc(-c3ccc(Cl)cc3Cl)nc2)C(=O)O1` [Example 269], the EC50 turned out to be 518 nM.
Then `Cc1ccc(Cl)cc1-c1ccc(CN2C[C@@H](C)OC2=O)cc1` [Example 233], with 45.6 nM.
In the case of `C[C@@H]1CN(Cc2ccc(OCCC3CCCCC3)c(Cl)c2)C(=O)O1` [Example 287, (5R)-3-[3-chloro-4-(2-cyclohexylethoxy)benzyl]-5-methyl-1,3-oxazolidin-2-one] it was 174 nM.
For `O=C1OC(c2cccnc2)CN1Cc1ccc(-c2ccc(OC(F)(F)F)cc2F)cc1` (centres unmarked) [Example 303, 3-{[2′-Fluoro-4′-(trifluoromethoxy)biphenyl-4-yl]methyl}-5-pyridin-3-yl-1,3-oxazolidin-2-one], the half-maximal effective concentration (EC50) came out at 77.7 nM.
In the case of `C[C@@H]1CN(Cc2ccc(-c3cccc4cnccc34)cc2)C(=O)O1` [Example 162] it was 42 nM; in that of `C[C@@H]1CN(Cc2cnc(-c3cccc(F)c3F)c(F)c2)C(=O)O1` [Example 298, (5R)-3-{[6-(2,3-Difluorophenyl)-5-fluoropyridin-3-yl]methyl}-5-methyl-1,3-oxazolidin-2-one], 1360 nM; in that of `CC(C)COc1ccc(CN2CC(C)OC2=O)cc1` (centres unmarked) [Example 20], 979 nM.
Take `CC(Oc1ccc(CN2CCN(CCCC(F)(F)F)CC2=O)cc1)C1CCCCC1` (centres unmarked) [Example 218]: the EC50 worked out at 681 nM.
Then `CC(Oc1ccc(CN2CC(c3cccnc3)OC2=O)cc1)C1CCCCC1` (centres unmarked) [Example 208], with 41.6 nM; and `Cc1ccc(-c2ccc(CN3C[C@@H](C)OC3=O)cn2)c(F)c1` [Example 257], with 429 nM; and `C[C@@H]1CN(Cc2ccc(OCCC(C)(C)C)cc2)C(=O)O1` [Example 213], with 20.1 nM.
In the case of `CC1CN(Cc2ccc(OCCCc3cccnc3)cc2)C(=O)O1` (centres unmarked) [Example 120] it was 1150 nM; in that of `C[C@@H]1CN(Cc2ccc(-c3ccc(Cl)cc3OC(F)(F)F)cc2)C(=O)O1` [Example 316], 50.4 nM; in that of `C[C@H]1[C@@H](c2ccccc2)OC(=O)N1Cc1ccc(OC2CCCCC2)cc1` [Example 56], 356 nM.
In the case of `Cc1cc(Cl)ccc1-c1ccc(CN2C[C@@H](C)OC2=O)cc1` [Example 236] it was 49 nM; in that of `C[C@@H]1CN(Cc2ccc(OCC3CCC(NC4CCC4)CC3)cc2)C(=O)O1` (stereo partly drawn) [Example 297, (5R)-3-(4-{[4-(Cyclobutylamino)cyclohexyl]methoxy}benzyl)-5-methyl-1,3-oxazolidin-2-one], 1990 nM; in that of `CC1CCCC1N1CCN(Cc2ccc(OC(C)C3CCCCC3)cc2)C(=O)C1` (centres unmarked) [Example 225], 638 nM.
On to `CC1CN(Cc2ccc(O[C@H]3C[C@H]4CC[C@@H]3C4)cc2)C(=O)O1` (some centres unmarked) [Example 123], for which the EC50 came to 22.6 nM.
As to `O=C1OC[C@@H]2CCCC[C@@H]2N1Cc1ccc(OC2CCCCC2)cc1` [Example 41], the EC50 was 386 nM.
Consider `CC(Oc1ccc(CN2CCN(C(C)CC3CC3)CC2=O)cc1)C1CCCCC1` (centres unmarked) [Example 219], for which the EC50 came to 697 nM.
Then `C[C@@H]1CN(Cc2ccc(-c3ccc(Cl)cc3F)cc2)C(=O)O1` [Example 256], with below 39.8 nM.
Then `CC(Oc1ccc(CN2C(=O)OC[C@@H]3CCCC[C@@H]32)cc1)c1ccccc1` (some centres unmarked) [Example 35], with 884 nM; and `C[C@H]1[C@@H](c2ccccc2)OC(=O)N1Cc1ccc(OCc2cccnc2)cc1` [Example 32], with 245 nM.
In the case of `C[C@@H]1CN(Cc2ccc(OCCCOc3ccc(F)cc3)cc2)C(=O)O1` [Example 206] it was 29.9 nM; in that of `COc1ccc(F)c(COc2ccc(CN3CC(C)OC3=O)cc2)c1` (centres unmarked) [Example 151], 92.1 nM.
Regarding `C[C@@H]1CN(Cc2ccc(-c3ccc(F)c(F)c3)cc2)C(=O)O1` [Example 245], the concentration for a half-maximal effect (EC50) worked out at 92.9 nM.
In the case of `Cc1ccc(-c2ccc(CN3C[C@@H](C)OC3=O)cc2)c(F)c1` [Example 232] it was below 39.2 nM.
With `CC(Oc1ccc(CN2C[C@@H](C)OC2=O)cc1F)C1CCCCC1` (stereo partly drawn) [Example 230, (5R)-3-[4-(1-Cyclohexylethoxy)-3-fluorobenzyl]-5-methyl-1,3-oxazolidin-2-one], the concentration for a half-maximal effect (EC50) was below 21.6 nM.
In the case of `C[C@@H]1CN(Cc2ccc(-c3ccc(OC(F)F)cc3Cl)nc2)C(=O)O1` [Example 312] it was 578 nM.
Regarding `CC1(C)COC(=O)N(Cc2ccc(OCC3CCC3)cc2)C1` [Example 15], the EC50 is 935 nM.
Then `CCC(C)CCOc1ccc(CN2CC(C)OC2=O)cc1` (centres unmarked) [Example 94], with 42 nM.
In the case of `CC(Oc1ccc(CN2CC(c3ccccc3)OC2=O)cc1)c1ccccc1` (centres unmarked) [Example 39] it was 244 nM.
Then `C[C@@H]1CN(Cc2ccc3c(c2)CCC(C)(C)O3)C(=O)O1` [Example 87, (5R)-3-[(2,2-Dimethyl-3,4-dihydro-2H-chromen-6-yl)methyl]-5-methyl-1,3-oxazolidin-2-one], with 1380 nM; and `CCCC(C)CN1CCN(Cc2ccc(OC(C)C3CCCCC3)cc2)C(=O)C1` (centres unmarked) [Example 214], with 712 nM; and `CC1CN(Cc2ccc(OCCCn3ccc4ccccc43)cc2)C(=O)O1` (centres unmarked) [Example 149], with 35.8 nM.
As to `COc1cccc(CCOc2ccc(CN3CC(C)OC3=O)cc2)c1` (centres unmarked) [Example 105], the concentration for a half-maximal effect (EC50) worked out at 217 nM.
In the case of `COc1ccc(F)cc1-c1ccc(CN2C[C@@H](C)OC2=O)cc1` [Example 166] it was 24.6 nM; in that of `Cc1cc(CN2C[C@@H](C)OC2=O)ccc1OCc1ccc(F)cc1C(F)(F)F` [Example 285, (5R)-3-(4-{[4-fluoro-2-(trifluoromethyl)benzyl]oxy}-3-methylbenzyl)-5-methyl-1,3-oxazolidin-2-one], 217 nM; in that of `CCc1ccccc1-c1ccc(CN2C[C@@H](C)OC2=O)cc1` [Example 167], below 13.4 nM.
In the case of `COc1ccc(CCCOc2ccc(CN3CC(C)OC3=O)cc2)cc1` (centres unmarked) [Example 98] it was 7.07 nM; in that of `C[C@@H]1CN(Cc2ccc(-c3ccc(C(F)(F)F)cc3F)c(F)c2)C(=O)O1` [Example 292], 56 nM; in that of `C[C@@H]1CN(Cc2ccc(-c3cc(F)cc(F)c3)cc2)C(=O)O1` [Example 246], 445 nM.
Then `CC(C)CCN1CCN(Cc2ccc(OC(C)C3CCCCC3)cc2)C(=O)C1` (centres unmarked) [Example 220], with 801 nM; and `CCN1CCN(Cc2ccc(OC(C)C3CCCCC3)cc2)C(=O)C1` (centres unmarked) [Example 188, 1-[4-(1-cyclohexylethoxy)benzyl]-4-ethylpiperazin-2-one], with 725 nM; and `CC1CN(Cc2ccc(OCc3ccccc3Cl)cc2)C(=O)O1` (centres unmarked) [Example 117], with 34.5 nM.
Regarding `COc1ccc(-c2ccc(CN3C[C@@H](C)OC3=O)cc2F)c(F)c1F` [Example 293], the EC50 was below 59.9 nM.
Then `Cc1cc(-c2ccc(CN3C[C@@H](C)OC3=O)cn2)ccc1F` [Example 271], with 475 nM.
In the case of `COc1cc(F)ccc1-c1ccc(CN2C[C@@H](C)OC2=O)cc1` [Example 239] it was below 105 nM; in that of `O=C1OC(c2ccccc2)CN1Cc1ccc(OCC2CCC2)cc1` (centres unmarked) [Example 9], 135 nM.
Then `C[C@@H]1CN(Cc2ccc(-c3cccc(Cl)c3F)cc2)C(=O)O1` [Example 235], with below 23.5 nM.
For the compound `CC(C)Oc1ccc(-c2ccc(CN3C[C@@H](C)OC3=O)cc2)c(F)c1` [Example 281], the EC50 came to 8.14 nM.
With `C[C@@H]1CN(Cc2ccc(-c3ccc(C(F)(F)F)cc3C(F)(F)F)nc2)C(=O)O1` [Example 276], the EC50 turned out to be 788 nM.
In the case of `CC1CN(Cc2ccc(OCc3cccc(Cl)c3)cc2)C(=O)O1` (centres unmarked) [Example 108] it was 91.2 nM.
Then `C[C@@H]1CN(Cc2ccc(CN3CCc4ccccc43)cc2)C(=O)O1` [Example 301, (5R)-3-[4-(2,3-Dihydro-1H-indol-1-ylmethyl)benzyl]-5-methyl-1,3-oxazolidin-2-one], with 389 nM; and `CC1CN(Cc2ccc(OCCOc3ccccc3)cc2)C(=O)O1` (centres unmarked) [Example 121], with 434 nM.
Then `CCOc1ccccc1COc1ccc(CN2CC(C)OC2=O)cc1` (centres unmarked) [Example 114], with 25.7 nM.
As for `CC1CN(Cc2ccc(OCc3cccc(C#N)c3)cc2)C(=O)O1` (centres unmarked) [Example 129], the EC50 worked out at 155 nM.
In the case of `COc1ccc(C(C)C)cc1-c1ccc(CN2C[C@@H](C)OC2=O)cc1` [Example 156] it was below 16.2 nM; in that of `CCOc1cccc(COc2ccc(CN3CC(C)OC3=O)cc2)c1` (centres unmarked) [Example 138], 87.3 nM.
Then `Cc1cc(CN2C[C@@H](C)OC2=O)ccc1-c1ccc(F)cc1F` [Example 299, (5R)-3-[(2′,4′-Difluoro-2-methylbiphenyl-4-yl)methyl]-5-methyl-1,3-oxazolidin-2-one], with 167 nM.
In the case of `C[C@@H]1CN(Cc2ccc(-c3cccc(C#N)c3)cc2)C(=O)O1` [Example 85] it was 498 nM; in that of `COc1ccc(-c2ccc(CN3C[C@@H](C)OC3=O)cn2)c(F)c1F` [Example 262], 363 nM.
Regarding `CC[C@H](C)COc1ccc(CN2CC(C)OC2=O)cc1` (some centres unmarked) [Example 100], the EC50 came to 55.9 nM.
In the case of `CC(Oc1ccc(CN2CCOC2=O)cc1)C1CCCCC1` (centres unmarked) [Example 42] it was 677 nM.
In the case of `CC(C)Oc1ccc(-c2ccc(CN3C[C@@H](C)OC3=O)cn2)c(F)c1` [Example 279], the concentration for a half-maximal effect (EC50) is 159 nM.
Then `C[C@@H]1CN(Cc2ccc(O[C@H](C)c3ccccc3)cc2)C(=O)O1` [Example 67, (5R)-5-methyl-3-{4-[(1R)-1-phenylethoxy]benzyl}-1,3-oxazolidin-2-one], with 240 nM.
In the case of `O=C1OC(c2ccccc2)CN1Cc1ccc(OC2CCOCC2)cc1` (centres unmarked) [Example 36] it was 571 nM; in that of `CC1CN(Cc2ccc(OC[C@@H](C)c3ccccc3)cc2)C(=O)O1` (some centres unmarked) [Example 111], 48.3 nM.
As for `CC1CN(Cc2ccc(OCc3cc(F)cc(F)c3)cc2)C(=O)O1` (centres unmarked) [Example 91], the EC50 came out at 152 nM.
Then `C[C@H]1[C@@H](c2ccccc2)OC(=O)N1Cc1ccc(OCCC2CCCCC2)cc1` [Example 30], with 987 nM.
